According to patent US20120101093A1, “SUBSTITUTED IMIDAZO[1,2-A]PYRIDINE DERIVATIVES, PHARMACEUTICAL COMPOSITIONS, AND METHODS OF USE AS BETA-SECRETASE INHIBITORS” (HIGH POINT PHARMACEUTICALS, LLC, priority 2009, published 2012):

Tests used:
[1] = test system: Aβ1-40 secreted from HEK293 cells stably expressing wildtype human APP695 protein (HEK-APPwt cells); experiment: Aβ Cell Based Assay (Aβ1-40 secretion, ELISA); conditions: Homo sapiens, HEK293, 6 h, 6 hours incubation, reduction of Aβ1-40 secretion
Procedure: Aβ Cell Based Assay Procedure
In the following assay, the proteolytic activity of BACE in cells exposed to varying concentrations of a compound of interest is measured by observing the amount of Aβ1-40 secreted from HEK293 cells (Human Embryonic Kidney epithelial cell line) stably expressing wildtype human APP695 protein (HEK-APPwt cells).
HEK-APPwt cells were grown in high glucose DMEM (Dulbecco's Modified Eagles Medium SIGMA Cat.# D5796) supplemented with 25 mM HEPES (4-(2-hydroxyethyl)-1-piperazineethanesulfonic acid) (pH 7.4) (Invitrogen Cat.# 15630-114), 0.1 mM NEAA (Non-essential Amino Acids) (BioWhittaker Cat. #13-114E), 10% fetal bovine serum (SIGMA Cat. #F4135) and 250 μg/mL hygromycin (Invitrogen Cat. #10687-010) in T-225 flasks at 37° C. with 5% CO2 and humidity control.
Test compounds were initially prepared in DMSO and diluted with DMEM media containing 2% FBS (Fetal bovine serum). Ten standard compound solutions were prepared having a range of concentrations. The standard compound solutions were used to determine the EC50 of the test compound. The range of concentrations chosen may depend on the compound's predicted potency.
To prepare the cells for the assay, a flask containing HEK-APPwt cells were trypsinized briefly (1 mL trypsin), and once the cells detached, 4 mL of 10% FBS-DMEM was added to the flask. The detached cells were centrifuged at 900 rpm for 5 min to form a pellet.
The HEK-APPwt cell pellet was re-suspended with 10 mL DMEM media containing 2% FBS. 80 μL of the cell suspension was added to each well of a 96-well cell culture plate to give 100×10^4cells/ml. 10 μL of a standard compound solution was added to each well of the 96-well cell culture plate followed by 10 μL of Alamar blue solution. The cells were incubated at 37° C. in a 5% CO2 incubator for 6 hours.
At the end of the incubation, the plates were removed from incubator, and the supernatant was collected. A≈1-40 concentration in the medium was measured by using a commercial Aβ1-X ELISA kit (IBL, Japan Cat. #27729). Briefly, the ELISA plates were coated with an anti-human AO (N)(82E1) mouse IgG monoclonal antibody. A horseradish peroxidase conjugated anti-human Aβ11-28 mouse IgG monoclonal antibody was used for detection. The cell culture supernatant was diluted with EIA buffer +protease inhibitors (kit buffer containing protease inhibitors (1 mL PI/30 mL buffer)). A 100 μL aliquot of the diluted supernatant was added to each well of the ELISA plate and incubated for 6 hrs at 4° C. The ELISA plate was washed 8 times with phosphate buffered saline (PBS) containing 0.05% Tween 20.
A 100 μL of detection antibody was then added and incubated for 1 hour at 4° C. The plate was washed 8 times with PBS buffer containing 0.05% Tween 20 followed by addition of 100 μL of the chromogen tetramethylbenzidine (TMB). The plate was incubated in the dark at room temperature for about 30 min and a stop solution (1N H2SO4) was added.
The intensity of the color developed was measured at 450 nm. The optical density at 450 nm (OD450) is proportional to the concentration of human Aβ1-40 secreted by the cell. As a reference, N-[N-(3,5-difluorophenacetyl-L-alanyl)]-S-phenylglycine t-butyl ester (DAPT, a γ-secretase inhibitor) was used to indicate 100% inhibition of BACE activity. Thus, the assay measures the ability of a compound of interest to reduce Aβ1-40 secretion. For select compounds, compound potency is reported in Table 3 as the EC50 by calculating the percent inhibition at all concentration levels and the data were fit with non-linear curve fitting algorithm using GraphPad Prism.

BACE-1 enzyme = target: T1, BACE-1 enzyme (Homo sapiens, UniProt P56817); experiment: BACE Fluorescence Resonance Energy Transfer (FRET) Assay; assay type: biochemical; conditions: pH 4-4.5, 30 min pre-incubation, about 1.5 hours reaction
T1 construct: purchased R & D Systems 931AS
T1 sequence (P56817 46-457 limits assumed): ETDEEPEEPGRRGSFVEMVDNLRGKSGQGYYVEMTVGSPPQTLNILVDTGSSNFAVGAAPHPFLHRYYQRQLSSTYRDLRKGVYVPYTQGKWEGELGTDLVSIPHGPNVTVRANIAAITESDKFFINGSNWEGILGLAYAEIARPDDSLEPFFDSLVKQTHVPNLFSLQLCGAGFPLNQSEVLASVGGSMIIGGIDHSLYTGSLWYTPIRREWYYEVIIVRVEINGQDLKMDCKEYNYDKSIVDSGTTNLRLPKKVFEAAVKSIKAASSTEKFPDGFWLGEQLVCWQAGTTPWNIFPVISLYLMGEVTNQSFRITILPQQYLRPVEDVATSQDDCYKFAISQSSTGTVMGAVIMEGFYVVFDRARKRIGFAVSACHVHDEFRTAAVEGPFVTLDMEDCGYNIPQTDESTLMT
Outline: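 BACE-1 enzyme pre-incubated 30 min with compound in 7.5% DMSO in 50 mM sodium acetate pH 4-4.5, 0.01% CHAPS, 0.0125% Triton X-100, 0.006% EDTA. Rhodamine/quencher peptide substrate added; ~1.5 h at room temperature, fluorescence read at 540/585 nm. IC50 or percent inhibition at one concentration.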

Structure (SMILES) | EC50 [1] [µM] | IC50 (BACE-1 enzyme) [µM]
O=C(Nc1nc2cc(OCc3ccc(C(F)(F)F)cc3)ccc2[nH]1)c1cn2c(C(F)(F)F)cccc2n1 [Example 49, 5-Trifluoromethyl-imidazo[1,2-a]pyridine-2-carboxylic acid [5-(4-trifluoromethyl-benzyloxy)-1H-benzoimidazol-2-yl]-amide] | 8.76 | 0.17
Cc1cccn2cc(C(=O)Nc3nc4cc(-c5ccc(C(F)(F)F)cc5)ccc4[nH]3)nc12 [Example 50, 8-Methyl-imidazo[1,2-a]pyridine-2-carboxylic acid [5-(4-trifluoromethyl-phenyl)-1H-benzoimidazol-2-yl]-amide] | 4.41 | 0.32
Cc1cccn2cc(C(=O)Nc3nc4cc(-c5cccc(Cl)c5)ccc4[nH]3)nc12 [Example 51, 8-Methyl-imidazo[1,2-a]pyridine-2-carboxylic acid [5-(3-chloro-phenyl)-1H-benzoimidazol-2-yl]-amide] | 1.84 | 0.96
O=C(Nc1nc2cc(OCc3ccc(C(F)(F)F)cc3)ccc2[nH]1)c1cn2cc(-c3ccccc3)ccc2n1 [Example 52, 6-Phenyl-imidazo[1,2-a]pyridine-2-carboxylic acid [5-(4-trifluoromethyl-benzyloxy)-1H-benzoimidazol-2-yl]-amide] | 0.51 | 5.28
Cc1cccc2nc(C(=O)Nc3nc4cc(-c5cccc(C(F)(F)F)c5F)ccc4[nH]3)cn12 [Example 53, 5-Methyl-imidazo[1,2-a]pyridine-2-carboxylic acid [5-(2-fluoro-3-trifluoromethyl-phenyl)-1H-benzoimidazol-2-yl]-amide] | 0.23 | 0.26
COc1cc(-c2ccc3[nH]c(NC(=O)c4cn5c(C)cccc5n4)nc3c2)cc(C(F)(F)F)c1 [Example 54, 5-Methyl-imidazo[1,2-a]pyridine-2-carboxylic acid [5-(3-methoxy-5-trifluoromethyl-phenyl)-1H-benzoimidazol-2-yl]-amide] | 0.98 | 0.39
O=C(Nc1nc2cc(-c3ccc(F)c(C(F)(F)F)c3)ccc2[nH]1)c1cn2c(C(F)(F)F)cccc2n1 [Example 55, 5-Trifluoromethyl-imidazo[1,2-a]pyridine-2-carboxylic acid [5-(4-fluoro-3-trifluoromethyl-phenyl)-1H-benzoimidazol-2-yl]-amide] | 2.36 | 0.26
Cc1cccc2nc(C(=O)Nc3nc4ccc(-c5cc(F)cc(Cl)c5)cc4[nH]3)cn12 [Example 56, 5-Methyl-imidazo[1,2-a]pyridine-2-carboxylic acid [6-(3-chloro-5-fluoro-phenyl)-1H-benzoimidazol-2-yl]-amide] | 0.24 | 0.28
O=C(Nc1nc2cc(-c3ccc(F)c(C(F)(F)F)c3)ccc2[nH]1)c1cn2c(F)cccc2n1 [Example 58, 5-Fluoro-imidazo[1,2-a]pyridine-2-carboxylic acid [5-(4-fluoro-3-trifluoromethyl-phenyl)-1H-benzoimidazol-2-yl]-amide] | 0.4 | 0.76
Cc1ccc2nc(C(=O)Nc3nc4cc(-c5cccc(C(F)(F)F)c5)ccc4[nH]3)cn2c1 [Example 59, 6-Methyl-imidazo[1,2-a]pyridine-2-carboxylic acid [5-(3-trifluoromethyl-phenyl)-1H-benzoimidazol-2-yl]-amide] | 3.16 | 0.41
Cc1cccc2nc(C(=O)Nc3nc4cc(/C=C/c5ccc(C(F)(F)F)cc5)ccc4[nH]3)cn12 [Example 61, 5-Methyl-imidazo[1,2-a]pyridine-2-carboxylic acid {5-[(E)-2-(4-trifluoromethyl-phenyl)-vinyl]-1H-benzoimidazol-2-yl}-amide] | 0.28 | 0.22
Cc1cccc2nc(C(=O)Nc3nc4cc(CCc5ccc(C(F)(F)F)cc5)ccc4[nH]3)cn12 [Example 62, 5-Methyl-imidazo[1,2-a]pyridine-2-carboxylic acid {5-[2-(4-trifluoromethyl-phenyl)-ethyl]-1H-benzoimidazol-2-yl}-amide] | 0.87 | 0.4
Cc1cccc2nc(C(=O)Nc3nc4cc(-c5ccc(F)c(F)c5)ccc4[nH]3)cn12 [Example 63, 5-Methyl-imidazo[1,2-a]pyridine-2-carboxylic acid [5-(3,4-difluoro-phenyl)-1H-benzoimidazol-2-yl]-amide] | 1.32 | 1.15
Cc1cccc2nc(C(=O)Nc3nc4cc(-c5ccc(F)c(Cl)c5)ccc4[nH]3)cn12 [Example 64, 5-Methyl-imidazo[1,2-a]pyridine-2-carboxylic acid [5-(3-chloro-4-fluoro-phenyl)-1H-benzoimidazol-2-yl]-amide] | 0.14 | 0.31
Cc1cccn2cc(C(=O)Nc3nc4cc(-c5ccc(F)c(Cl)c5)ccc4[nH]3)nc12 [Example 65, 8-Methyl-imidazo[1,2-a]pyridine-2-carboxylic acid [5-(3-chloro-4-fluoro-phenyl)-1H-benzoimidazol-2-yl]-amide] | 0.96 | 0.3
Cc1cccc2nc(C(=O)Nc3nc4cc(-c5ccc(Cl)cc5)ccc4[nH]3)cn12 [Example 68, 5-Methyl-imidazo[1,2-a]pyridine-2-carboxylic acid [5-(4-chloro-phenyl)-1H-benzoimidazol-2-yl]-amide] | 1.61 | 0.48
Cc1cccn2cc(C(=O)Nc3nc4cc(-c5ccc(Cl)cc5)ccc4[nH]3)nc12 [Example 69, 8-Methyl-imidazo[1,2-a]pyridine-2-carboxylic acid [5-(4-chloro-phenyl)-1H-benzoimidazol-2-yl]-amide] | 6.97 | 0.46
Cc1cccc2nc(C(=O)Nc3nc4cc(-c5cc(C(F)(F)F)ccc5F)ccc4[nH]3)cn12 [Example 70, 5-Methyl-imidazo[1,2-a]pyridine-2-carboxylic acid [5-(2-fluoro-5-trifluoromethyl-phenyl)-1H-benzoimidazol-2-yl]-amide] | 0.21 | 0.26
Cc1cccn2cc(C(=O)Nc3nc4cc(-c5cc(C(F)(F)F)ccc5F)ccc4[nH]3)nc12 [Example 71, 8-Methyl-imidazo[1,2-a]pyridine-2-carboxylic acid [5-(2-fluoro-5-trifluoromethyl-phenyl)-1H-benzoimidazol-2-yl]-amide] | 1.56 | 0.36
CCOC(=O)c1cccc(-c2ccc3[nH]c(NC(=O)c4cn5c(C)cccc5n4)nc3c2)c1 [Example 72, 3-{2-[(5-Methyl-imidazo[1,2-a]pyridine-2-carbonyl)-amino]-1H-benzoimidazol-5-yl}-benzoic acid ethyl ester] | 1.51 | 0.62
COc1ccc(-c2ccc3[nH]c(NC(=O)c4cn5c(C)cccc5n4)nc3c2)cc1C(F)(F)F [Example 76, 5-Methyl-imidazo[1,2-a]pyridine-2-carboxylic acid [5-(4-methoxy-3-trifluoromethyl-phenyl)-1H-benzoimidazol-2-yl]-amide] | 0.89 | 0.38
Cc1cccc2nc(C(=O)Nc3nc4cc(-c5ccc(C(C)(C)C)cc5)ccc4[nH]3)cn12 [Example 77, 5-Methyl-imidazo[1,2-a]pyridine-2-carboxylic acid [5-(4-tert-butyl-phenyl)-1H-benzoimidazol-2-yl]-amide] | 0.85 | 0.61
